Tests used:
Format in all cases: in vivo
[1] = system: pigweed (Amaranthus retroflexus); experiment: Test A preemergence, pigweed; details: 0 to 100 scale; for Pigweed plant response rating: 0 is no effect, 100 is complete control
Description: (§1) Seeds of plant species selected from barnyardgrass (Echinochloa crus-galli), kochia (Kochia scoparia), ragweed (common ragweed, Ambrosia elatior), ryegrass, Italian (Lolium multiflorum), foxtail, giant (Setaria faberii), foxtail, green (Setaria viridis), and pigweed (Amaranthus retroflexus) were planted into a blend of loam soil and sand and treated preemergence with a directed soil spray using test chemicals formulated in a non-phytotoxic solvent mixture which included a surfactant.
(§2) At the same time, plants selected from these weed species and also wheat (Triticum aestivum), corn (Zea mays), blackgrass (Alopecurus myosuroides), and galium (catchweed bedstraw, Galium aparine) were planted in pots containing the same blend of loam soil and sand and treated with postemergence applications of test chemicals formulated in the same manner. Plants ranged in height from 2 to 10 cm and were in the one- to two-leaf stage for the postemergence treatment. Treated plants and untreated controls were maintained in a greenhouse for approximately 10 d, after which time all treated plants were compared to untreated controls and visually evaluated for injury. Plant response ratings, summarized in Table A, are based on a 0 to 100 scale where 0 is no effect and 100 is complete control. A dash (-) response means no test result.

[2] = system: blackgrass (Alopecurus myosuroides); experiment: Test A postemergence, blackgrass; details: 0 to 100 scale
Description: as §1, §2

[3] = system: ryegrass, Italian (Lolium multiflorum); experiment: Test A postemergence, Italian ryegrass; details: 0 to 100 scale
Description: as §1, §2

kochia (Kochia scoparia) [4] = experiment: Test A preemergence, kochia; details: 0 to 100 scale; for Kochia plant response rating: 0 is no effect, 100 is complete control
Description: as §1, §2

[5] = system: barnyardgrass (Echinochloa crus-galli); experiment: Test A preemergence, barnyardgrass; details: 0 to 100 scale; for Barnyardgrass plant response rating: 0 is no effect, 100 is complete control
Description: as §1, §2

[6] = system: sedge, umbrella (small-flower umbrella sedge, Cyperus difformis); experiment: Test B flooded paddy test, umbrella sedge; details: Flood, 250 g ai/ha, applied to paddy water, 2-leaf stage, visual evaluation after 13 to 15 d
Description: (§3) Plant species in the flooded paddy test selected from rice (Oryza sativa), sedge, umbrella (small-flower umbrella sedge, Cyperus difformis), ducksalad (Heteranthera limosa), and barnyardgrass (Echinochloa crus-galli) were grown to the 2-leaf stage for testing. At the time of treatment, test pots were flooded to 3 cm above the soil surface, treated by application of test compounds directly to the paddy water, and then maintained at that water depth for the duration of the test. Treated plants and controls were maintained in a greenhouse for 13 to 15 d, after which time all species were compared to controls and visually evaluated. Plant response ratings, summarized in Table B, are based on a scale of 0 to 100 where 0 is no effect and 100 is complete control. A dash (-) response means no test result.

[7] = system: ducksalad (Heteranthera limosa); experiment: Test B flooded paddy test, ducksalad; details: Flood, 250 g ai/ha, applied to paddy water, 2-leaf stage, visual evaluation after 13 to 15 d
Description: as §3

[8] = system: galium (catchweed bedstraw, Galium aparine); experiment: Test A postemergence, galium; details: 0 to 100 scale
Description: as §1, §2

[9] = system: ryegrass, Italian (Lolium multiflorum); experiment: Test A preemergence, Italian ryegrass; details: 0 to 100 scale
Description: as §1, §2

[10] = system: foxtail, giant (Setaria faberii); experiment: Test A postemergence, giant foxtail; details: 0 to 100 scale
Description: as §1, §2

[11] = system: ragweed (common ragweed, Ambrosia elatior); experiment: Test A postemergence, ragweed; details: 0 to 100 scale
Description: as §1, §2

[12] = system: barnyardgrass (Echinochloa crus-galli); experiment: Test A postemergence, barnyardgrass; details: 0 to 100 scale
Description: as §1, §2

corn (Zea mays) = experiment: Test A postemergence, corn; details: 0 to 100 scale
Description: as §1, §2

[13] = system: barnyardgrass (Echinochloa crus-galli); experiment: Test B flooded paddy test, barnyardgrass; details: Flood, 250 g ai/ha, applied to paddy water, 2-leaf stage, visual evaluation after 13 to 15 d
Description: as §3

rice (Oryza sativa) = experiment: Test B flooded paddy test, rice; details: Flood, 250 g ai/ha, applied to paddy water, 2-leaf stage, visual evaluation after 13 to 15 d
Description: as §3

[14] = system: pigweed (Amaranthus retroflexus); experiment: Test A postemergence, pigweed; details: 0 to 100 scale
Description: as §1, §2

[15] = system: wheat (Triticum aestivum); experiment: Test A postemergence, wheat; details: 0 to 100 scale
Description: as §1, §2

[16] = system: foxtail, giant (Setaria faberii); experiment: Test A preemergence, giant foxtail; details: 0 to 100 scale; for Foxtail, Giant plant response rating: 0 is no effect, 100 is complete control
Description: as §1, §2

kochia (Kochia scoparia) [17] = experiment: Test A postemergence, kochia; details: 0 to 100 scale
Description: as §1, §2

[18] = system: ragweed (common ragweed, Ambrosia elatior); experiment: Test A preemergence, ragweed; details: 1000 g ai/ha, 0 to 100 scale, 0 is no effect, 100 is complete control
Description: as §1, §2

[19] = 1000 g ai/ha, 0 is no effect, 100 is complete control

Row | SMILES | Plant response rating, Pigweed ([1]; 500 g ai/ha) | Plant response rating, Blackgrass ([2]; 125 g ai/ha) | Plant response rating, Blackgrass ([2]; 500 g ai/ha) | Plant response rating, Ryegrass, Italian ([3]; 125 g ai/ha) | Plant response rating, Ryegrass, Italian ([3]; 500 g ai/ha) | Plant response rating, Kochia (kochia (Kochia scoparia) [4]; 500 g ai/ha) | Plant response rating, Barnyardgrass ([5]; 500 g ai/ha) | Plant response rating, Sedge, Umbrella (0 to 100 scale, 0 is no effect, 100 is complete control) [6] | Plant response rating, Ducksalad (0 to 100 scale, 0 is no effect, 100 is complete control) [7] | Plant response rating, Galium ([8]; 125 g ai/ha) | Plant response rating, Galium ([8]; 500 g ai/ha) | Plant response rating, Foxtail, Giant ([10]; 125 g ai/ha) | Plant response rating, Foxtail, Giant ([10]; 500 g ai/ha) | Plant response rating, Ragweed ([11]; 125 g ai/ha) | Plant response rating, Ragweed ([11]; 500 g ai/ha) | Plant response rating, Barnyardgrass ([12]; 125 g ai/ha) | Plant response rating, Barnyardgrass ([12]; 500 g ai/ha) | Plant response rating, Corn (corn (Zea mays); 125 g ai/ha) | Plant response rating, Corn (corn (Zea mays); 500 g ai/ha) | Plant response rating, Barnyardgrass (0 to 100 scale, 0 is no effect, 100 is complete control) [13] | further results
1 | C[C@H](Nc1ncc(C(F)(F)F)c(N)n1)C1Cc2ccccc2C1 [Compound 12] | 50 | 0 | 0 | 0 | 0 | 0 | 0 | 0 | 0 | 0 | 0 | 0 | 0 | 0 | 0 | 0 | 0 | 0 | 0 | 0 | Plant response rating, Pigweed ([1]; 125 g ai/ha): 0; Plant response rating, Kochia (kochia (Kochia scoparia) [4]; 125 g ai/ha): 0; Plant response rating, Barnyardgrass ([5]; 125 g ai/ha): 0; Plant response rating, Ryegrass, Italian ([9]; 125 g ai/ha): 0; Plant response rating, Ryegrass, Italian ([9]; 500 g ai/ha): 0; Plant response rating, Rice (0 to 100 scale, 0 is no effect, 100 is complete control) (rice (Oryza sativa)): 0; Plant response rating, Pigweed ([14]; 125 g ai/ha): 30; Plant response rating, Pigweed ([14]; 500 g ai/ha): 40; Plant response rating, Wheat ([15]; 125 g ai/ha): 0; Plant response rating, Wheat ([15]; 500 g ai/ha): 0; Plant response rating, Foxtail, Giant ([16]; 125 g ai/ha): 0; Plant response rating, Foxtail, Giant ([16]; 500 g ai/ha): 0; Plant response rating, Kochia (kochia (Kochia scoparia) [17]; 125 g ai/ha): 0; Plant response rating, Kochia (kochia (Kochia scoparia) [17]; 500 g ai/ha): 30
2 | C[C@@H](Nc1nc(N)cc(C(F)(F)F)n1)c1cc2ccccc2s1 [Compound 97] | – | – | – | – | – | – | – | – | – | – | – | – | – | – | – | – | – | – | – | – | Pigweed plant response rating ([1]; 1000 g ai/ha): 0; Blackgrass plant response rating [2, 19]: 0; Ryegrass, Italian plant response rating [3, 19]: 0; Kochia plant response rating (kochia (Kochia scoparia) [4]; 1000 g ai/ha): 0; Barnyardgrass plant response rating ([5]; 1000 g ai/ha): 0; Galium plant response rating [8, 19]: 20; Ryegrass, Italian plant response rating [9, 19]: 0; Foxtail, Giant plant response rating [10, 19]: 0; Ragweed plant response rating [11, 19]: 0; Barnyardgrass plant response rating [12, 19]: 0; Corn plant response rating (corn (Zea mays); [19]): 0; Pigweed plant response rating [14, 19]: 0; Wheat plant response rating [15, 19]: 0; Foxtail, Giant plant response rating ([16]; 1000 g ai/ha): 0; Ragweed plant response rating [18]: 0; Kochia plant response rating (kochia (Kochia scoparia) [17]; [19]): 20
3 | CC(Nc1ncc(C(F)(F)F)c(N)n1)c1cc2ccccc2s1 (racemic) [Compound 16] | 100 | 10 | 30 | 0 | 40 | 100 | 100 | 95 | 15 | 60 | 80 | 20 | 90 | 0 | 80 | 30 | 60 | 0 | 20 | 50 | Plant response rating, Pigweed ([1]; 125 g ai/ha): 90; Plant response rating, Kochia (kochia (Kochia scoparia) [4]; 125 g ai/ha): 70; Plant response rating, Barnyardgrass ([5]; 125 g ai/ha): 70; Plant response rating, Ryegrass, Italian ([9]; 125 g ai/ha): 0; Plant response rating, Ryegrass, Italian ([9]; 500 g ai/ha): 10; Plant response rating, Rice (0 to 100 scale, 0 is no effect, 100 is complete control) (rice (Oryza sativa)): 0; Plant response rating, Pigweed ([14]; 125 g ai/ha): 90; Plant response rating, Pigweed ([14]; 500 g ai/ha): 100; Plant response rating, Wheat ([15]; 125 g ai/ha): 0; Plant response rating, Wheat ([15]; 500 g ai/ha): 0; Plant response rating, Foxtail, Giant ([16]; 125 g ai/ha): 50; Plant response rating, Foxtail, Giant ([16]; 500 g ai/ha): 100; Plant response rating, Kochia (kochia (Kochia scoparia) [17]; 125 g ai/ha): 70; Plant response rating, Kochia (kochia (Kochia scoparia) [17]; 500 g ai/ha): 80
4 | Cc1cc(OCC(C)Nc2ncc(C(F)(F)F)c(N)n2)ccc1F (centres unmarked) [Compound 38] | 90 | 0 | 0 | 0 | 0 | 60 | 90 | 0 | 0 | 30 | 70 | 0 | 0 | 0 | 0 | 0 | 0 | 0 | 0 | 0 | Pigweed plant response rating ([1]; 125 g ai/ha): 50; Kochia plant response rating (kochia (Kochia scoparia) [4]; 125 g ai/ha): 0; Barnyardgrass plant response rating ([5]; 125 g ai/ha): 30; Plant response rating, Rice (0 to 100 scale, 0 is no effect, 100 is complete control) (rice (Oryza sativa)): 0; Plant response rating, Pigweed ([14]; 125 g ai/ha): 20; Plant response rating, Pigweed ([14]; 500 g ai/ha): 80; Plant response rating, Wheat ([15]; 125 g ai/ha): 0; Plant response rating, Wheat ([15]; 500 g ai/ha): 0; Foxtail, Giant plant response rating ([16]; 125 g ai/ha): 20; Plant response rating, Foxtail, Giant ([16]; 500 g ai/ha): 90; Plant response rating, Kochia (kochia (Kochia scoparia) [17]; 125 g ai/ha): 0; Plant response rating, Kochia (kochia (Kochia scoparia) [17]; 500 g ai/ha): 30
